Measured values from patent publication US12491187B2, “Use of MCT1 inhibitors to enhance insulin sensitivity” (H. LEE MOFFIT CANCER CENTER AND RESEARCH INSTITUTE, INC., priority 2022, dated 2025).

What was measured:
Assay type in all cases: cell-based, murine
3T3-L1 cells = assay: Oil Red O staining of lipid during preadipocyte differentiation; details: differentiated in the presence of 1 μM AZD3965, vs control 3T3-L1
Procedure: Differentiation Protocol: The 3T3-L1 differentiation protocol was adapted from Green and Meuth (1974) (Zebisch, K, et al. Anal. Biochem. 2012 425:88-90; Green, H, et al. Cell 1974 3:127-133). Cells were seeded at approximately 80% confluency and allowed to reach confluency prior to induction of differentiation. 1-2 days post confluency, growth media was changed to ‘day 0’ media consisting of media supplemented with 0.5 mM 1-methyl-3-isobutyl xanthine (IBMX), 1 µM dexamethasone, and 10 μg/mL insulin. On ‘day 3’ media was changed to growth media with 10 μg/mL insulin only, and on ‘day 6’ media was replaced with normal growth media. After day 6, the complete media was refreshed every 2 days. Using Oil Red O staining, RT-qPCR and immunoblotting, it was determined that 3T3-L1 cells were fully differentiated into lipid-laden adipocytes by ‘day 8’ of the protocol, as reported by others (Petersen, C, et al. Sci. Rep. 2017 7:13101; Mangum, L H, et al. Toxicol. Lett. 2015 238:65-71). All differentiation experiments were performed on cells between passage 4 and 6 to ensure differentiation efficiency was consistent. Oil Red O Staining: Cells were then fixed with 4% PFA for 10 minutes. […] 10× images of cells were taken from randomized fields of view with the Cytation 5 Cell Imaging Multi-Mode reader (BioTek Instruments). Lipid content was also quantified on the Cytation 5.

[1] = tested on: differentiated 3T3-L1 cells; assay: Lipolysis (intracellular glycerol, Glycerol-Glo); details: 1 μM, all time points measured (24, 48, 72 hr)
Procedure: Lipolysis (Intracellular Glycerol): 3T3-L1 cells were seeded, differentiated and treated with or without AZD3965 (1 μM) for up to 72 hr in clear 96 well plates (Corning®). After media removal and washing cells with PBS, the Glycerol-Glo™ (Promega®) assay kit was used to assess changes in lipolysis through the quantification of intracellular glycerol according to the manufacturer's instructions. A luminescent signal is produced that is proportional to the amount of glycerol within the sample Luminescence was read on a spectrophotometer (FlexStation 3; Molecular Devices).

[2] = tested on: differentiated 3T3-L1 adipocytes; assay: Adipokine antibody array on conditioned media; details: 72 hr treatment, media conditioned 24 hr
Procedure: Adipokine Antibody Array: 3T3-L1 cells were differentiated and treated with or without AZD3965 for 72 hr. After this incubation, media was replenished, and adipocytes were cultured for an additional 24 hr to allow for adipokine secretion and media conditioning. Media was collected and analyzed for adipokine secretion with the Proteome Profiler Mouse Adipokine Array Kit (R&D Systems) according to the manufacturer's instructions. Chemiluminescence was detected with the LI-COR Odyssey® XF Imaging System with a 2 minute exposure time. Positive signals were quantified using Image Studio™ (LI-COR Biosciences) to quantify signal intensity. Data presented represent signal intensity normalized by the signal intensity of reference antibodies within the array.

[3] = tested on: differentiated 3T3-L1 adipocytes; assay: Intracellular pyruvate (Amplite fluorimetric assay); details: 1 μM
Procedure: Intracellular Pyruvate: Intracellular pyruvate was measured using the Amplite™ Fluorimetric Pyruvate Assay Kit (AAT Bioquest) according to the manufacturer's instructions. 3T3-L1 cells were seeded and differentiated in white clear bottom 96-well plates (Corning®). After differentiation, cells were treated with compound or vehicle as indicated. Following 15 min, 30 min, 1 hr, 4 hr, 8 hr or 24 hr incubation with 1 μM AZD6965, media was removed, and cells were lysed with ReadiUse™ mammalian cell lysis buffer (AAT Bioquest). Lysates were then subjected to an enzyme-coupled reaction with the Quest Fluor™ Pyruvate Sensor resulting in an […] detected at 575 nm which is proportional to the quantity of pyruvate within the sample. Absorbance was read on a spectrophotometer (FlexStation 3; Molecular Devices).

preadipocytes (3T3-L1) = assay: Proliferation (CyQUANT NF) of preadipocytes; details: 72 hr
[4] = tested on: differentiated 3T3-L1 (WT) cells; assay: Glucose uptake (Glucose Uptake-Glo) in WT adipocytes; details: for insulin-stimulated glucose uptake: then 175 nM insulin 30 minutes
Procedure: (§1) Glucose Uptake: 3T3-L1 cells were seeded and differentiated in clear bottom 96-well plates (Corning®). After differentiation, cells were treated with or without […] AZD3965 for 24 hr, 48 hr or 72 hr as illustrated in FIG. 7 (schematic outline of experimental procedure). The cells were incubated in serum free media the night before performing the assay. The following day/morning, media was changed to serum and glucose free media for 2 hr prior to the experiment. Cells were then stimulated with 175 nM Insulin or vehicle (PBS) for 30 minutes. Glucose Uptake was measured using the Glucose Uptake-Glo™ Assay (Promega®) according to the manufacturer's protocol. The data generated were normalized by dividing the relative luminescence units (RLU) measured in insulin stimulated wells by vehicle treated controls. The aforementioned experiment was repeated in the presence of the CDK1 inhibitor, RO-3306 (10 μM), where indicated (FIG. 5C).

3T3-L1-shMCT1 cells = assay: Glucose uptake (Glucose Uptake-Glo) in MCT1 knockdown cells
Procedure: Cell Line Development: Lenti plasmid vectors containing shRNA targeting MCT1 or a shScramble sequence were purchased from Genocopia. Lentiviral particles were produced using HEK293T cells and a third-generation packaging system, MISSION Lentiviral Packaging Mix, as per manufacturer's (Sigma-Aldrich) recommendations. To generate shMCT1 cells, 3T3-L1 cells were seeded and transduced with optimized titers of freshly harvested lentivirus. 12 hr after transduction, medium was changed, and cells were allowed to recover for 24 h before being placed under antibiotic selection (2 μg/mL puromycin [Clontech]) for 3-6 days. Cells surviving antibiotic selection were harvested for both reverse transcription quantitative chain polymerase reaction (RT-qPCR) and immunoblotting analyses.
as §1, with “The following day/morning, media was changed to serum and glucose free media for 2 hr prior to the experiment. Cells were then stimulated with 175 nM Insulin or vehicle (PBS) for 30 minutes.” left out, “The aforementioned experiment was repeated in the presence of the CDK1 inhibitor, RO-3306 (10 μM), where indicated (FIG. 5C).” left out

Cc1[nH]nc(C(F)(F)F)c1Cc1sc2c(c1C(=O)N1C[C@](C)(O)CO1)c(=O)n(C)c(=O)n2C(C)C [AZD3965, 5-[[(4S)-4-hydroxy-4-methyl-2-isoxazolidinyl]carbonyl]-3-methyl-1-(1-methylethyl)-6-[[5-methyl-3-(trifluoromethyl)-1H-pyrazol-4-yl]methyl]-thieno[2,3-d]pyrimidine-2,4 (1H, 3H)-dione]
lipid content (Oil Red O staining) over the course of differentiation (3T3-L1 cells): significantly less lipid
intracellular glycerol levels (lipolysis) [1]: significantly increased
adipokine levels in conditioned media [2]: no significant differences
intracellular pyruvate levels ([3]; after 24 hr): not significantly altered
intracellular pyruvate ([3]; first 8 hr of treatment): significant increase
proliferation (preadipocytes (3T3-L1)): no effect on proliferation
insulin-stimulated glucose uptake ([4]; 1 μM for 24 hr): did not reach statistical significance
insulin-stimulated glucose uptake ([4]; 1 μM for 48 hr and 72 hr): significant increase
basal, non-insulin stimulated glucose uptake ([4]; 1 μM, 24-72 hr): no impact
insulin-stimulated glucose uptake (3T3-L1-shMCT1 cells; 1 μM for 72 hr, 175 nM insulin): do not respond to insulin as robustly as WT 3T3-L1 cells or show any increase
basal, non-insulin stimulated glucose uptake (3T3-L1-shMCT1 cells; 1 μM, up to 72 hr): no significant changes
